These results are taken from US10981894B2, “Melanocortin subtype-2 receptor (MC2R) antagonists and uses thereof” (Crinetics Pharmaceuticals, Inc., priority 2018, dated 2021).

Structures are written as SMILES.

hMC2 receptor, sequence (Q01718 whole entry): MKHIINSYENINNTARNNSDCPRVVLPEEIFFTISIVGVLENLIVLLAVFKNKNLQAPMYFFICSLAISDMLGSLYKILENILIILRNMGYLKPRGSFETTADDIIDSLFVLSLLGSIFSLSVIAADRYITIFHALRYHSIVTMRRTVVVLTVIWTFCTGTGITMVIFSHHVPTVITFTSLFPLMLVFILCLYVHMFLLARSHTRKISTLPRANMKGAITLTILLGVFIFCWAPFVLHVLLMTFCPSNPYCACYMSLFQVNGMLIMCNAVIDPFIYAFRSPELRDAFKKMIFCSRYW
hMC2 receptor, sequence (Q8TCY5 whole entry partner): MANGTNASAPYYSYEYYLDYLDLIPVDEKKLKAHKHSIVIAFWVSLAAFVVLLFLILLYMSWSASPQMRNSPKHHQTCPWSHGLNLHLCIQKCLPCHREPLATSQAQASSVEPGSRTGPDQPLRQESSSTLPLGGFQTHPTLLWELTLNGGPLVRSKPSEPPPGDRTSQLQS

For this test, the target named is hMC2 receptor (Homo sapiens, UniProt Q01718). The test can be described thus: hMC2 membrane binding assay ([125I]ACTH (1-39) Tyr23, SPA). On the set-up: scale not given here. The note with it: crude hMC2R membranes from CRE-bla-CHO-K1 cells expressing hMC2 receptor and hMRAP; [125I]ACTH (1-39) Tyr23 0.2 nM; 1.5 hours at room temperature; read-out: MC2R binding potency. A digest of the protocol:
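CRE-bla-CHO-K1 membranes co-expressing hMC2 receptor and hMRAP, preincubated with WGA PVT SPA beads in pH 7.4 HEPES/MgCl2/CaCl2/0.2% BSA buffer. Compounds (typically 0–10,000 nM final) compete with 0.2 nM [125I]ACTH(1-39) Tyr23 for 1.5 h at room temperature. SPA counts give Ki by non-linear regression.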
With `CCOc1ncccc1-c1ccc(N2CCN(C(=O)N3CCc4cccc(C)c43)C[C@H]2CC)c(C(=O)N[C@@H]2CCNC2)n1` [Compound 1-360, 2′-ethoxy-5-[(2R)-2-ethyl-4-(7-methyl-2,3-dihydro-1H-indole-1-carbonyl)piperazin-1-yl]-N-[(3R)-pyrrolidin-3-yl]-[2,3′-bipyridine]-6-carboxamide], the Ki was below 10 nM.
For `CCOc1ncccc1-c1ccc(N2CCN(C(=O)N3CCC[C@H]3C(C)(C)F)C[C@H]2CC)c(C(=O)N[C@@H]2CCN(C)C2)n1` [Compound 1-413, 2′-ethoxy-5-[(2R)-2-ethyl-4-[(2S)-2-(2-fluoropropan-2-yl)pyrrolidine-1-carbonyl]piperazin-1-yl]-N-[(3R)-1-methylpyrrolidin-3-yl]-[2,3′-bipyridine]-6-carboxamide], the Ki is below 10 nM.
Take `CCOc1ncccc1-c1ccc(N2CCN(C(=O)C3(C(F)(F)F)CCCC3)C[C@H]2CC)c(C(=O)N[C@H]2CCN(C)C2)n1` [Compound 1-363, 2′-ethoxy-5-[(2R)-2-ethyl-4-[1-(trifluoromethyl)cyclopentanecarbonyl]piperazin-1-yl]-N-[(3S)-1-methylpyrrolidin-3-yl]-[2,3′-bipyridine]-6-carboxamide]: the Ki is below 10 nM.
In the case of `CCOc1ccccc1-c1ccc(N2CCN(C(=O)c3ccc(Cl)cc3Cl)C[C@H]2CC)c(C(=O)NCCN)c1` [Compound 1-15, (R)-N-(2-aminoethyl)-4-(4-(2,4-dichlorobenzoyl)-2-ethylpiperazin-1-yl)-2′-ethoxy-[1,1′-biphenyl]-3-carboxamide] it was below 10 nM.
In the case of `CCOc1ncccc1-c1ccc(N2CCN(C(=O)c3ccc(OC)nc3C(F)(F)F)C[C@H]2CC)c(C(=O)N[C@H]2CN(C)C[C@H]2F)n1` [Compound 1-296, 2′-ethoxy-5-[(2R)-2-ethyl-4-[6-methoxy-2-(trifluoromethyl)pyridine-3-carbonyl]piperazin-1-yl]-N-[(3S,4R)-4-fluoro-1-methylpyrrolidin-3-yl]-[2,3′-bipyridine]-6-carboxamide] it was below 10 nM.
In the case of `CCOc1ncccc1-c1ccc(N2CCN(C(=O)c3ccc(Cl)cc3C(F)F)C[C@H]2CC)c(C(=O)NCCN(C)C)n1` [Compound 1-210, 5-[(2R)-4-[4-chloro-2-(difluoromethyl)benzoyl]-2-ethylpiperazin-1-yl]-N-[2-(dimethylamino)ethyl]-2′-ethoxy-[2,3′-bipyridine]-6-carboxamide] it was below 10 nM; in that of `CCOc1ncccc1-c1ccc(N2CCN(C(=O)OC3(CC)CCCC3)C[C@H]2CC)c(C(=O)N[C@@H]2CCN(C)C2)n1` [Compound 1-397, 1-ethylcyclopentyl (3R)-4-(2′-ethoxy-6-{[(3R)-1-methylpyrrolidin-3-yl]carbamoyl}-[2,3′-bipyridin]-5-yl)-3-ethylpiperazine-1-carboxylate], below 10 nM; in that of `CCOc1ccc(C(=O)N2CCN(c3ccc(-c4cccnc4OCC)nc3C(=O)NCC3CN(C)C3)[C@H](CC)C2)c(C(F)(F)F)n1` [Compound 1-249, 2′-ethoxy-5-[(2R)-4-[6-ethoxy-2-(trifluoromethyl)pyridine-3-carbonyl]-2-ethylpiperazin-1-yl]-N-[(1-methylazetidin-3-yl)methyl]-[2,3′-bipyridine]-6-carboxamide], below 10 nM.
Take `CCOc1ncccc1-c1ccc(N2CCN(C(=O)c3ccc(OC)cc3C(F)(F)F)C[C@H]2CC)c(C(=O)NCCNC)c1F` [Compound 1-155, 3-(2-ethoxypyridin-3-yl)-6-[(2R)-2-ethyl-4-[4-methoxy-2-(trifluoromethyl)benzoyl]piperazin-1-yl]-2-fluoro-N-[2-(methylamino)ethyl]benzamide]: the Ki was below 10 nM.
In the case of `CCCOc1ccccc1-c1ccc(N2CCN(C(=O)c3ccc(C(F)(F)F)cc3Cl)C[C@H]2CC)c(C(=O)NCCN)c1` [Compound 1-11, N-(2-aminoethyl)-4-[(2R)-4-[2-chloro-4-(trifluoromethyl)benzoyl]-2-ethylpiperazin-1-yl]-2′-propoxy-[1,1′-biphenyl]-3-carboxamide] it was 10 to 100 nM.
As for `CCOc1ncccc1-c1ccc(N2CCN(C(=O)c3ccc(F)cc3C(F)(F)F)C[C@H]2CC)c(C(=O)N[C@@H]2CCN(C)C2)n1` [Compound 1-258, 2′-ethoxy-5-[(2R)-2-ethyl-4-[4-fluoro-2-(trifluoromethyl)benzoyl]piperazin-1-yl]-N-[(3R)-1-methylpyrrolidin-3-yl]-[2,3′-bipyridine]-6-carboxamide], the Ki is below 10 nM.
Take `CCOc1ncccc1-c1ccc(N2CCN(C(=O)c3ccc(F)cc3C(F)(F)F)C[C@H]2CC)c(C(=O)NCCN(C)C)c1F` [Compound 1-174, N-[2-(dimethylamino)ethyl]-3-(2-ethoxypyridin-3-yl)-6-[(2R)-2-ethyl-4-[4-fluoro-2-(trifluoromethyl)benzoyl]piperazin-1-yl]-2-fluorobenzamide]: the Ki was below 10 nM.
In the case of `CCOc1ncccc1-c1ccc(N2CCN(C(=O)c3ccc(OC)cc3C(F)(F)F)C[C@H]2CC)c(C(=O)NCC2=NCCN2)c1F` [Compound 1-170, N-[(4,5-dihydro-1H-imidazol-2-yl)methyl]-3-(2-ethoxypyridin-3-yl)-6-[(2R)-2-ethyl-4-[4-methoxy-2-(trifluoromethyl)benzoyl]piperazin-1-yl]-2-fluorobenzamide], the Ki is below 10 nM.
With `CCOc1ncccc1-c1ccc(N2CCN(C(=O)c3ccc(F)cc3-c3ccc(CN)cc3)C[C@H]2CC)c(C(=O)NCCN)c1` [Compound 1-36, N-(2-aminoethyl)-2-[(2R)-4-[4′-(aminomethyl)-5-fluoro-[1,1′-biphenyl]-2-carbonyl]-2-ethylpiperazin-1-yl]-5-(2-ethoxypyridin-3-yl)benzamide], the Ki was below 10 nM.
Consider `CCOc1ncccc1-c1ccc(N2CCN(C(=O)C3(C(F)(F)F)CC(F)(F)C3)C[C@H]2CC)c(C(=O)N[C@@H]2CCNC2)n1` [Compound 1-298, 5-[(2R)-4-[3,3-difluoro-1-(trifluoromethyl)cyclobutanecarbonyl]-2-ethylpiperazin-1-yl]-2′-ethoxy-N-[(3R)-pyrrolidin-3-yl]-[2,3′-bipyridine]-6-carboxamide], for which the Ki was below 10 nM.
`CCOc1ccccc1-c1ccc(N2CCN(C(=O)c3ccc(Cl)cc3C(F)(F)F)C[C@H]2CC)c(C(=O)NCCN(C)C)n1` [Compound 1-149, 3-[(2R)-4-[4-chloro-2-(trifluoromethyl)benzoyl]-2-ethylpiperazin-1-yl]-N-[2-(dimethylamino)ethyl]-6-(2-ethoxyphenyl)pyridine-2-carboxamide]: the Ki is below 10 nM.
In the case of `CC[C@@H]1CN(C(=O)N2CCC[C@H]2C(C)(C)C)CCN1c1ccc(-c2ccccc2OC)nc1C(=O)N[C@@H]1CCNC1` [Compound 1-315, 3-[(2R)-4-[(2S)-2-tert-butylpyrrolidine-1-carbonyl]-2-ethylpiperazin-1-yl]-6-(2-methoxyphenyl)-N-[(3R)-pyrrolidin-3-yl]pyridine-2-carboxamide] it was below 10 nM; in that of `CCOc1ncccc1-c1ccc(N2CCN(C(=O)c3ccc(Cl)cc3C(F)(F)F)C[C@H]2CC)c(C(=O)N[C@@H]2CCNC2)c1` [Compound 1-45, 2-[(2R)-4-[4-chloro-2-(trifluoromethyl)benzoyl]-2-ethylpiperazin-1-yl]-5-(2-ethoxypyridin-3-yl)-N-[(3R)-pyrrolidin-3-yl]benzamide], below 10 nM; in that of `CCOc1ccccc1-c1ccc(N2CCN(C(=O)c3ccc(Cl)cc3C(F)(F)F)C[C@H]2CC)c(C(=O)N[C@@H]2CCNC2)n1` [Compound 1-209, 3-[(2R)-4-[4-chloro-2-(trifluoromethyl)benzoyl]-2-ethylpiperazin-1-yl]-6-(2-ethoxyphenyl)-N-[(3R)-pyrrolidin-3-yl]pyridine-2-carboxamide], below 10 nM.
As to `CCOc1ncccc1-c1ccc(N2CCN(C(=O)c3ccc(OC)nc3C(F)(F)F)C[C@H]2CC)c(C(=O)N[C@@H]2CNC[C@H]2F)n1` [Compound 1-289, 2′-ethoxy-5-[(2R)-2-ethyl-4-[6-methoxy-2-(trifluoromethyl)pyridine-3-carbonyl]piperazin-1-yl]-N-[(3R,4R)-4-fluoropyrrolidin-3-yl]-[2,3′-bipyridine]-6-carboxamide], the Ki was below 10 nM.
Take `CCOc1ncccc1-c1ccc(N2CCN(C(=O)c3ccc(Cl)cc3Cl)C[C@H]2CC)c(C(=O)N[C@@H]2CCN(C)C2)n1` [Compound 1-259, 5-[(2R)-4-(2,4-dichlorobenzoyl)-2-ethylpiperazin-1-yl]-2′-ethoxy-N-[(3R)-1-methylpyrrolidin-3-yl]-[2,3′-bipyridine]-6-carboxamide]: the Ki is below 10 nM.
Consider `CCOc1ncccc1-c1ccc(N2CCN(C(=O)c3cc(Cl)sc3Cl)C[C@H]2CC)c(C(=O)N[C@@H]2CCN(C)C2)n1` [Compound 1-378, 5-[(2R)-4-(2,5-dichlorothiophene-3-carbonyl)-2-ethylpiperazin-1-yl]-2′-ethoxy-N-[(3R)-1-methylpyrrolidin-3-yl]-[2,3′-bipyridine]-6-carboxamide], for which the Ki is below 10 nM.
`CCOc1ccc(C(=O)N2CCN(c3ccc(-c4cccnc4OCC)nc3C(=O)NC[C@@H]3CCN3)[C@H](CC)C2)c(C(F)(F)F)n1` [Compound 1-256, N-{[(2S)-azetidin-2-yl]methyl}-2′-ethoxy-5-[(2R)-4-[6-ethoxy-2-(trifluoromethyl)pyridine-3-carbonyl]-2-ethylpiperazin-1-yl]-[2,3′-bipyridine]-6-carboxamide]: the Ki is below 10 nM.
In the case of `CCOc1ccccc1-c1ccc(N2CCN(C(=O)N3CCC[C@H]3C(F)(F)F)C[C@H]2CC)c(C(=O)NCC2CN(C)C2)n1` [Compound 1-362, 6-(2-ethoxyphenyl)-3-[(2R)-2-ethyl-4-[(2S)-2-(trifluoromethyl)pyrrolidine-1-carbonyl]piperazin-1-yl]-N-[(1-methylazetidin-3-yl)methyl]pyridine-2-carboxamide], the Ki is below 10 nM.
